In patent publication US20240197733A1, “A GABA RECEPTOR MODULATOR FOR USE IN THE TREATMENT OF PAIN” (SANIONA A/S, priority 2021, published 2024):

Tests used:
[1] = system: electrocutaneous stimulation-induced facial pain rodent model; assay: ES-induced facial pain model, prophylactic treatment, overall conclusion (mechanical and thermal tests); type: in vivo, Sprague-Dawley rats; settings: po
Method: Unless stated otherwise, the same materials, methods, and provisions of Example 1 were applied to Example 2. The experimenter assessing the behavioral responses to drug administration is blinded to the drug treatment to the animals. Each treatment group is coded according the scheme below: • A. Vehicle (5% DMSO+30% HPBCD): 10 ml/kg • B. Compound 1: 0.3 mg/kg • C. Compound 1: 1 mg/kg • D. Compound 1: 3 mg/kg • F. Compound 1: 3 mg/kg—acute Second baseline measurement was carried out similarly to day 1, For each animal, the average of the two baseline nociceptive measurements was calculated within each pain modality (mechanical, heat- and cold pain), and used as baseline (“Baseline” point on figures). Then all rats in the above respective group (A-D) are given treated as mentioned. Group F received vehicle treatment. Treatment is continued once daily to each group same as Day 2 All rats were treated with respective treatment as per day 3-7. After 1 hr of treatment, each rat was subjected to 1 hr of electrocutaneous stimulation at depilated cheek (0.4 mA intensity, 10 ms duration, 1 s inter-pulse interval). […] Treatment effects on pain thresholds were evaluated 2- and 4 hours after administration by assessing mechanical- (Von Frey) and thermal (heat and cold) withdrawal threshold.

[2] = system: electrocutaneous stimulation-induced facial pain rodent model; assay: ES-induced facial pain model, hot thermal hyperalgesia (lamp test), prophylactic and acute treatment; type: in vivo, Sprague-Dawley rats; settings: for development of heat hyperalgesia vs vehicle: day 9 at 0 time
Method: Immediately following assessment of mechanical pain threshold, thermal (hot- and cold induced) pain was determined. Hot thermal pain thresholds were assessed by measuring each rat's facial withdrawal latency (seconds) in response to thermal stimulation on the depilated and stimulated rat cheek by using Yeomans' Thermal Testing Lamp with the following settings: Lamp fixed ˜7 cm above depilated left cheek of rat, Voltage regulator was set to 45V for C fiber testing. Cutoff was set at 20 seconds to avoid tissue damage. Unless stated otherwise, the same materials, methods, and provisions of Example 1 were applied to Example 2. The required quantity of the compound is weighed and dissolved in 100% DMSO in a volume amounting to 5% of the total volume while placed on a stirrer. The weight of the compounds refers to the free base weights. Once the solution becomes clear/transparent, the remaining volume of the vehicle is added (30% HPBCD prepared in MQ water) to final concentrations of 0.03, 0.1, and 0.3 mg/ml for Compound 1. The solutions are kept on a stirrer before- and during administration of the compounds to the animals. The experimenter assessing the behavioral responses to drug administration is blinded to the drug treatment to the animals. Each treatment group is coded according the scheme below: • A. Vehicle (5% DMSO+30% HPBCD): 10 ml/kg • B. Compound 1: 0.3 mg/kg • C. Compound 1: 1 mg/kg • D. Compound 1: 3 mg/kg • F. Compound 1: 3 mg/kg—acute Second baseline measurement was carried out similarly to day 1, For each animal, the average of the two baseline nociceptive measurements was calculated within each pain modality (mechanical, heat- and cold pain), and used as baseline (“Baseline” point on figures). Then all rats in the above respective group (A-D) are given treated as mentioned. Group F received vehicle treatment. Treatment is continued once daily to each group same as Day 2 All rats were treated with respective treatment as per day 3-7. After 1 hr of treatment, each rat was subjected to 1 hr of electrocutaneous stimulation at depilated cheek (0.4 mA intensity, 10 ms duration, 1 s inter-pulse interval). Similar to day 1- and 2, all rats were acclimatized to test equipment followed by measurements of ES-induced facial mechanical- heat- and cold allodynia (“0” time point on figures). After measurement of hypersensitivity threshold, rats from group A-D received the vehicle and three doses of Compound 1 as mentioned above while group F received single acute dose of 3 mg/kg of Compound 1. Treatment effects on pain thresholds were evaluated 2- and 4 hours after administration by assessing mechanical- (Von Frey) and thermal (heat and cold) withdrawal threshold.

[3] = target: GABAA receptors containing the a5 subunit (Homo sapiens, UniProt P18507+P31644); settings: cited from earlier work
Sequence of GABAA receptors containing the a5 subunit (P31644 32-462): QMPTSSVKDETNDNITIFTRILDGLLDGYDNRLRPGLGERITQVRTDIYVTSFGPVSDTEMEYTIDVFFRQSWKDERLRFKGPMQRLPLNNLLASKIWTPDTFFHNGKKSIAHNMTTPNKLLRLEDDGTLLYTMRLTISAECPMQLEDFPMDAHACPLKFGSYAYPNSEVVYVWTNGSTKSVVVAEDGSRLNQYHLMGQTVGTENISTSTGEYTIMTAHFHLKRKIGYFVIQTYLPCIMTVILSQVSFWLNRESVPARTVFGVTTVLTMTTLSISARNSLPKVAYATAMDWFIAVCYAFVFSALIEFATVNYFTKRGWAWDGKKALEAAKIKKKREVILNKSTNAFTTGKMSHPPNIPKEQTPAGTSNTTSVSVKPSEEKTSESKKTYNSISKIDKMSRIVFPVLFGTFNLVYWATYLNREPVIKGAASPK
Sequence of GABAA receptors containing the a5 subunit (P47870 25-512 partner limits assumed): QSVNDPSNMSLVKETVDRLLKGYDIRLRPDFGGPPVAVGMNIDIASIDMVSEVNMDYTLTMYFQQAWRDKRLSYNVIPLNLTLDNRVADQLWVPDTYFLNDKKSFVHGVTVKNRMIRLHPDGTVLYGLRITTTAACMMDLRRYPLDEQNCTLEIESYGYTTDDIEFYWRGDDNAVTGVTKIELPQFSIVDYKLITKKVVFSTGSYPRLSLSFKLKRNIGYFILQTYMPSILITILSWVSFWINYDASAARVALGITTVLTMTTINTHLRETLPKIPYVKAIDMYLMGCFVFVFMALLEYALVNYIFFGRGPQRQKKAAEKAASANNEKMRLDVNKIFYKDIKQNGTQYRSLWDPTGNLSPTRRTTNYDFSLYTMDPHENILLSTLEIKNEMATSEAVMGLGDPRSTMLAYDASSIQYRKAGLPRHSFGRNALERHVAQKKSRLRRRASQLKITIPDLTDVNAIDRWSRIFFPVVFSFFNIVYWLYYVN
Sequence of GABAA receptors containing the a5 subunit (P18507 40-475): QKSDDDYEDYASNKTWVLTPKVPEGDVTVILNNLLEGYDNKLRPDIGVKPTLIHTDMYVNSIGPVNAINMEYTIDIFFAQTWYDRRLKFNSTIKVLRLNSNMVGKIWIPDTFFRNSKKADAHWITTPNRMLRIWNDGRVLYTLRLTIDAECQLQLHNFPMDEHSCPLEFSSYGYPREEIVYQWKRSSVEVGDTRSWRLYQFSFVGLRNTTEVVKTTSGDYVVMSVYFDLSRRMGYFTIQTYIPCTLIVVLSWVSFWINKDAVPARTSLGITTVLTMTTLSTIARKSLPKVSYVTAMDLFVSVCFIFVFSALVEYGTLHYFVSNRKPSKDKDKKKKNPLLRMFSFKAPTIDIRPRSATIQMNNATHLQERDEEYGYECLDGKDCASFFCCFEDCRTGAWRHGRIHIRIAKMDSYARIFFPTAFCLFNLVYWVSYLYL

COc1ncc(-c2cccc(-n3cnc4cc(C(C)(C)O)cnc43)c2)c(OC)n1 [Compound 1, 2-(3-(3-(2,4-dimethoxypyrimidin-5-yl)phenyl)-3H-imidazo[4,5-b]pyridin-6-yl)propan-2-ol]
analgesic effect compared with 10 mg/kg acute dose of Compound 1 or 30 mg/kg of Carbamazepine ([1]; once daily dose of 3 mg/kg, prophylactic): same analgesic effect | development of ES-induced sensitization (hypersensitivity to mechanical and thermal stimulus) ([1]; prophylactic treatment for 7 days, once daily dose): significantly reduced the development of ES-induced sensitization of the trigeminal sensory system | effect on established heat hyperalgesia vs vehicle ([2]; acute 3 mg/kg po on day 9, p<0.0001 post 2 and 4 hrs): reversed the heat hyperalgesia | effect on established heat hyperalgesia vs vehicle ([2]; prophylactic 0.3 mg/kg po plus additional dose on day 9, p<0.05 post 2 hrs, p<0.001 post 4 hrs): further enhanced the analgesic effect | development of heat hyperalgesia vs vehicle ([2]; prophylactic 1 mg/kg po once daily for 7 days, p<0.05 vs vehicle): significantly reduced the development of heat hyperalgesia | effect on established heat hyperalgesia vs vehicle ([2]; prophylactic 1 mg/kg po plus additional dose on day 9, p<0.0001 post 2 hrs and post 4 hrs): further enhanced the analgesic effect | development of heat hyperalgesia vs vehicle ([2]; prophylactic 3 mg/kg po once daily for 7 days, p<0.0001 vs vehicle): significantly reduced the development of heat hyperalgesia | effect on established heat hyperalgesia vs vehicle ([2]; prophylactic 3 mg/kg po plus additional dose on day 9, p<0.0001 post 2 hrs and post 4 hrs): further enhanced the analgesic effect | positive allosteric modulation of GABAA receptors containing the a5 subunit [3]: to a minor extent
